This is an account of results in patent publication US8143288B2, “Inhibitors of HCV replication” (priority 2005, dated 2012).

The structures appear in SMILES notation.

In this assay the test system is HCV 1b-377-neo replicon cells. The assay is described as follows: HCV replicon FRET assay. The class given is cell-based. The note with it: Hepatitis C virus; HCV replicon; read-out: Activity (EC50). The text has this:
The HCV replicon cell line was isolated from colonies as described by Lohman, et. al. (Science 1999, 285, 110-113, expressly incorporated by reference in its entirety) and used for all experiments. The HCV replicon has the nucleic acid sequence set forth in EMBL Accession No.: AJ242652, the coding sequence of which is from nt 1801 to 7758.
The coding sequence of the published HCV replicon was synthesized by Operon Technologies, Inc. (Alameda, Calif.), and the fall-length replicon was then assembled in plasmid pGem9zf(+) (Promega, Madison, Wis.) using standard molecular biology techniques. The replicon consists of (i) the HCV 5′ UTR fused to the first 12 amino acids of the capsid protein, (ii) the neomycin phosphotransferase gene (neo), (iii) the IRES from encephalomyocarditis virus (EMCV), and (iv) HCV NS3 to NS5B genes and the HCV 3′ UTR. Plasmid DNAs were linearized with ScaI and RNA transcripts were synthesized in vitro using the T7 MegaScript transcription kit (Ambion, Austin, Tex.) according to manufacturer's directions.
To generate cell lines, 4×10^6 Huh-7 cells (kindly provided by R. Bartenschlager and available from Health Science Research Resources Bank, Japan Health Sciences Foundation) were electroporated (GenePulser System, Bio-Rad) with 10 micrograms(“μg”) of RNA transcript and plated into 100-mm dishes. After 24 hours, selective media containing 1.0 milligrams/milliliter (“mg/mL”) G418 was added and media was changed every 3 to 5 days. […] These cell lines were maintained at 37° C., 5% CO2, 100% relative humidity in DMEM (Cat#11965-084) Gibco-BRL, Rockville, Md., with 10% heat inactivated calf serum (Sigma), 10 mL of 100× penicillin/streptomycin (Cat#15140-122) Gibco-BRL, Rockville, Md., Geneticin (Cat#10131-027) Gibco-BRL, Rockville, Md. at 1 mg/mL. One of the cell lines (deposited as ATCC Accession No. PTA-4583 in the American Type Culture Collection) which had approximately 3,000 copies of HCV replicon RNA/cell was used for development of the assay (HCV 1b-377-neo replicon cells).
To perform the HCV FRET screening assay, 96-well cell culture plates were used. The FRET peptide (Anaspec, Inc., San Jose, Calif.) (Taliani et al., Anal. Biochem. 1996, 240, 60-67, hereby incorporated by reference in its entirety) contains a fluorescence donor, EDANS, near one end of the peptide and an acceptor, DABCYL, near the other end. The fluorescence of the peptide is quenched by […] resonance energy transfer (RET) between the donor and the acceptor, but as the NS3 protease cleaves the peptide the products are released from RET quenching and the fluorescence of the donor becomes apparent.
The assay reagent was made as follows: 5X luciferase cell culture lysis (Cat#E153A, Promega, Madison, Wis.) diluted to 1X with dH2O, NaCl added to […] final, the FRET peptide diluted to 20 micromolar (“μM”) final from a 2 mM stock. HCV 1b-377-neo replicon cells were trypsinized, placed into each well of a 96-well plate and allowed to attach overnight. The next day, the test compounds were added to columns 1 through 10; column 11 was media plus DMSO only, and column 12 contained a titration of interferon or an HCV specific inhibitor as a control (1000 units for A12, B12, 100 units for C12, D12, 10 units for E12, F12 and 1 unit for G12, H12). […] In addition, naïve Huh-7 cells could also be used to replace wells A12 and B12 as a background control.
At subsequent various times (typically 72 hours), 10% final volume Alamar blue (Cat#00-100, Trek Diagnostics, Cleveland, Ohio) was added to each well. The plates were returned to the incubator for 5 hours and then read in the Cytoflour (PE Biosystems) to determine Alamar blue conversion in each well as a measure of cellular toxicity.
Consider `CSCC(=O)N1CCC[C@H]1C(=O)Nc1ccc(/C=C/c2ccc(NC(=O)[C@@H]3CCCN3C(=O)Cc3cc(C)no3)cc2)cc1` [Example 94], for which the EC50 is 0.1 to 90 nM.
For `Cc1ccoc1C(=O)N1CCC[C@H]1C(=O)Nc1ccc(/C=C/c2ccc(NC(=O)[C@@H]3CCCN3C(=O)c3occc3C)cc2)cc1` [Example 200] the value was 100 to 1000 nM; for `CC(C)(C)O[C@@H]1C[C@@H](C(=O)Nc2ccc(/C=C/c3ccc(NC(=O)C4CC4)cc3)cc2)N(C(=O)OCc2ccccc2)C1` [Example 259], 100 to 1000 nM; for `O=C(NC1CCCC1)O[C@@H]1C[C@@H](C(=O)Nc2ccc(/C=C/c3ccc(NC(=O)[C@@H]4C[C@@H](O)CN4C(=O)OCc4ccccc4)cc3)cc2)N(C(=O)OCc2ccccc2)C1` [Example 248], 1000 to 10000 nM.
Under `CN(C)c1ccccc1C(=O)N1CCC[C@H]1C(=O)Nc1ccc(/C=C/c2ccc(NC(=O)[C@@H]3CCCN3C(=O)c3ccccc3N(C)C)cc2)cc1` [Example 144] stands 1000 to 10000 nM; under `COc1ccc(OC)c(C(=O)N2CCC[C@H]2C(=O)Nc2ccc(/C=C/c3ccc(NC(=O)[C@@H]4CCCN4C(=O)c4cc(OC)ccc4OC)cc3)cc2)c1` [Example 145], 100 to 1000 nM; under `Cc1onc(-c2ccccc2)c1C(=O)N1CCC[C@H]1C(=O)Nc1ccc(/C=C/c2ccc(NC(=O)[C@@H]3CCCN3C(=O)c3c(-c4ccccc4)noc3C)cc2)cc1` [Example 204], 0.1 to 90 nM.
For `Cc1cccc(C(=O)N2CCC[C@H]2C(=O)Nc2ccc(/C=C/c3ccc(NC(=O)[C@@H]4CCCN4C(=O)c4cccc(C)n4)cc3)cc2)n1` [Example 114] the value was 100 to 1000 nM; for `CC(Oc1cccc(Cl)c1)C(=O)N1CCC[C@H]1C(=O)Nc1ccc(/C=C/c2ccc(NC(=O)[C@@H]3CCCN3C(=O)C(C)Oc3cccc(Cl)c3)cc2)cc1` (some centres unmarked) [Example 29], 100 to 1000 nM; for `O=C(Nc1ccc(/C=C/c2ccc(NC(=O)[C@@H]3Cc4ccccc4CN3C(=O)OCc3ccccc3)cc2)cc1)[C@@H]1Cc2ccccc2CN1C(=O)OCc1ccccc1` [Example 10], 1000 to 10000 nM.
Take `O=C(Nc1ccc(/C=C/c2ccc(NC(=O)[C@@H]3CCCN3C(=O)C3CC(=O)N(CCc4cccs4)C3)cc2)cc1)[C@@H]1CCCN1C(=O)C1CC(=O)N(CCc2cccs2)C1` (some centres unmarked) [Example 156]: the EC50 was 1000 to 10000 nM.
For `C[C@@](O)(C(=O)N1CCC[C@H]1C(=O)Nc1ccc(/C=C/c2ccc(NC(=O)[C@@H]3CCCN3C(=O)[C@@](C)(O)c3ccccc3)cc2)cc1)c1ccccc1` [Example 299] the value was 0.1 to 90 nM.
For `CC(C)C(=O)N1CCC[C@H]1C(=O)Nc1ccc(/C=C/c2ccc(NC(=O)[C@@H]3CCCN3C(=O)c3cccnc3)cc2)cc1` [Example 89] the value was 0.1 to 90 nM.
For `Cc1nc(-c2cccnc2)sc1C(=O)N1CCC[C@H]1C(=O)Nc1ccc(/C=C/c2ccc(NC(=O)[C@@H]3CCCN3C(=O)c3sc(-c4cccnc4)nc3C)cc2)cc1` [Example 185] the value was 1000 to 10000 nM.
With `C=Cc1ccccc1C(=O)N1CCC[C@H]1C(=O)Nc1ccc(/C=C/c2ccc(NC(=O)[C@@H]3CCCN3C(=O)c3ccccc3C=C)cc2)cc1` [Example 238], the EC50 lay within 1000 to 10000 nM.
For `Cc1cc(CC(=O)N2CCC[C@H]2C(=O)Nc2ccc(/C=C/c3ccc(NC(=O)[C@@H]4CCCN4C(=O)C4CCC4)cc3)cc2)on1` [Example 96] the value was 0.1 to 90 nM; for `O=C(Nc1ccc(/C=C\c2ccc(NC(=O)[C@@H]3C[C@@H](O)CN3C(=O)OCc3ccccc3)cc2)cc1)[C@@H]1C[C@@H](O)CN1C(=O)OCc1ccccc1` [Example 8], 100 to 1000 nM.
`COc1ccc2[nH]c(C)c(CC(=O)N3CCC[C@H]3C(=O)Nc3ccc(/C=C/c4ccc(NC(=O)[C@@H]5CCCN5C(=O)Cc5c(C)[nH]c6ccc(OC)cc56)cc4)cc3)c2c1` [Example 34]: the EC50 was in the range of 0.1 to 90 nM.
As for `O=C(Nc1ccc(/C=C/c2ccc(NC(=O)[C@@H]3CCCN3C(=O)c3ncccc3-c3cccc(Cl)c3)cc2)cc1)[C@@H]1CCCN1C(=O)c1ncccc1-c1cccc(Cl)c1` [Example 232], the EC50 lay in the range of 1000 to 10000 nM.
Turning to `COc1ccc(C(=O)N2CCC[C@H]2C(=O)Nc2ccc(/C=C/c3ccc(NC(=O)[C@@H]4CCCN4C(=O)c4ccc(OC)nc4OC)cc3)cc2)c(OC)n1` [Example 193], the EC50 was 1000 to 10000 nM.
Turning to `CC(=O)N1C[C@H](OC(C)(C)C)C[C@H]1C(=O)Nc1ccc(/C=C/c2ccc(NC(=O)[C@@H]3C[C@@H](OC(C)(C)C)CN3C(=O)Cc3cccnc3)cc2)cc1` [Example 132], the EC50 fell in the range of 100 to 1000 nM.
Under `CCCOc1ccccc1C(=O)N1CCC[C@H]1C(=O)Nc1ccc(/C=C/c2ccc(NC(=O)[C@@H]3CCCN3C(=O)c3ccccc3OCCC)cc2)cc1` [Example 134] stands 1000 to 10000 nM; under `O=C(Nc1ccc(/C=C/c2ccc(NC(=O)[C@@H]3C=CCN3C(=O)Cc3cccnc3)cc2)cc1)[C@@H]1C=CCN1C(=O)Cc1cccnc1` [Example 218], 0.1 to 90 nM; under `O=C(Nc1ccc(/C=C/c2ccc(NC(=O)[C@@H]3CCCN3S(=O)(=O)c3ccccc3OC(F)(F)F)cc2)cc1)[C@@H]1CCCN1S(=O)(=O)c1ccccc1OC(F)(F)F` [Example 280], 1000 to 10000 nM.
Under `COCC(=O)N1CCC[C@H]1C(=O)Nc1ccc(/C=C/c2ccc(NC(=O)[C@@H]3CCCN3C(=O)COC)cc2)cc1` [Example 47] stands 100 to 1000 nM; under `CCC(=O)N1CCC[C@H]1C(=O)Nc1ccc(/C=C/c2ccc(NC(=O)[C@@H]3CCCN3C(=O)Cc3cccs3)cc2)cc1` [Example 103], 0.1 to 90 nM; under `O=C(Nc1ccc(/C=C/c2ccc(NC(=O)[C@@H]3CCCN3C(=O)c3ccccc3NCc3ccco3)cc2)cc1)[C@@H]1CCCN1C(=O)c1ccccc1NCc1ccco1` [Example 170], 100 to 1000 nM.
For `CN(C)c1ccc(C(=O)N2CCC[C@H]2C(=O)Nc2ccc(/C=C/c3ccc(NC(=O)[C@@H]4CCCN4C(=O)C4CCC4)cc3)cc2)cc1` [Example 92] the value was 0.1 to 90 nM.
Consider `CC(C)(C)C(=O)N1CCC[C@H]1C(=O)Nc1ccc(/C=C/c2ccc(NC(=O)[C@@H]3CCCN3C(=O)C(C)(C)C)cc2)cc1` [Example 53], for which the EC50 lay in the range of 0.1 to 90 nM.
For `O=C(Nc1ccc(/C=C/c2ccc(NC(=O)[C@@H]3CCCN3C(=O)c3ccccc3NCc3ccccn3)cc2)cc1)[C@@H]1CCCN1C(=O)c1ccccc1NCc1ccccn1` [Example 161] the value was 1000 to 10000 nM.
Turning to `Cn1cncc1C(=O)N1CCC[C@H]1C(=O)Nc1ccc(/C=C/c2ccc(NC(=O)[C@@H]3CCCN3C(=O)c3cncn3C)cc2)cc1` [Example 211], the EC50 lay within 0.1 to 90 nM.
For `O=C(Nc1ccc(/C=C/c2ccc(NC(=O)[C@@H]3CCCN3C(=O)c3cccc4c3Cc3ccccc3-4)cc2)cc1)[C@@H]1CCCN1C(=O)c1cccc2c1Cc1ccccc1-2` [Example 165] the value was 1000 to 10000 nM; for `O=C(Nc1ccc(/C=C/c2ccc(NC(=O)[C@@H]3CCCN3C(=O)Cc3ccccc3OCc3ccccc3)cc2)cc1)[C@@H]1CCCN1C(=O)Cc1ccccc1OCc1ccccc1` [Example 167], 1000 to 10000 nM.
Take `Cc1cc(CC(=O)N2CCC[C@H]2C(=O)Nc2ccc(/C=C/c3ccc(NC(=O)[C@@H]4CCCN4C(=O)Cc4cc(C)no4)cc3)cc2)on1` [Example 36]: the EC50 was 0.1 to 90 nM.
For `O=C(Nc1ccc(/C=C/c2ccc(NC(=O)[C@@H]3CCCN3C(=O)c3c[nH]cn3)cc2)cc1)[C@@H]1CCCN1C(=O)c1c[nH]cn1` [Example 210] the value was 1000 to 10000 nM.
